“Also recorded” adds a separate entry of the source. Each block holds one compound with its values, some of them ahead of it. *1 amine or outer side, *2 acyl side, *3 side chain or, on linkers, in order; H or OH if unused. Where a SMILES comes first, the peptide text is derived from it. Bridges are numbered along the chain shown (N, C = ends). [ ]: non-standard residue; d: D form. X1 = CC(=O)NC(C(=O)OC(C(C)C)C(N[*:1])C(=O)[*:2])C(O)C(C)C; PhLac = O=C(O)[CH](O)Cc1ccccc1; NMeT = CN[CH](C(=O)O)[CH](C)O; NMeA = CN[CH](C)C(=O)O; NMeDha = C=C(NC)C(=O)O
Experiments:
[1] = tested on: N-hBRS3 (human BRS3 with truncated N terminus); assay: Luciferase reporter, N-terminal peptide stimulated, truncated receptor; type: cell-based; details: 1,000 nM peptide 12 h, HEK293
Experimental: (§1) To detect constitutive activity of BRS3, HEK293 cells were seeded in 24-well plates and cotransfected with the CRE/NFAT-RE/SRF-RE/SRE luciferase reporter plasmids (50 ng), the BRS3 from different species, or BRS3 mutants with different doses (10 ng/50 ng/150 ng); after 24 h, cells were further incubated in serum-free media for another 12 h before luciferase assay. As for peptide supplementation treatment, HEK293 cells were cotransfected with the CRE/NFAT-RE/SRF-RE/SRE luciferase reporter plasmids (50 ng) and various genes (300 ng) of the bombesin receptor family. […] Luciferase activities were determined using luciferase assay kits (Beyotime, Shanghai, China) and normalized to β-galactosidase activity. All experiments were performed at least three times in triplicates. HEK293 cells transfected with pcDNA were used as a blank control in all luciferase experiments, and the fold was calculated compared to blank control.

[2] = tested on: N-mBRS3 (mouse BRS3 with truncated N terminus); assay: as above; type: cell-based; details: 1,000 nM peptide 12 h, HEK293
Experimental: as §1

[3] = tested on: N-aBRS3 (aardvark BRS3 with truncated N terminus); assay: as above; type: cell-based, Orycteropus afer; details: 1,000 nM peptide 12 h, HEK293
Experimental: as §1

[4] = tested on: N-cBRS3 (chicken); assay: as above; type: cell-based, Gallus gallus; details: 1,000 nM, 12 h, HEK293
Experimental: as §1

[5] = tested on: N-sBRS3 (spotted gar); assay: as above; type: cell-based, Lepisosteus oculatus; details: 1,000 nM, 12 h, HEK293
Experimental: as §1

[6] = tested on: N-tBRS3 (turtle); assay: as above; type: cell-based, Chrysemys picta; details: 1,000 nM, 12 h, HEK293
Experimental: as §1

[7] = tested on: pcDNA-transfected HEK293 cells; assay: Luciferase reporter, N-terminal peptide stimulated, empty vector; type: cell-based, human; details: 1,000 nM peptide 12 h
Experimental: as §1

[8] = tested on: N-BRS3 receptors of placental mammals (N-hBRS3, N-mBRS3, and N-aBRS3); assay: Luciferase reporter, N-terminal peptide stimulated, pooled; type: cell-based, human, mouse, aardvark; details: CRE/NFAT-RE/SRF-RE; 1,000 nM, 12 h, HEK293
Experimental: as §1

[9] = tested on: BRS3 receptors in nonplacental vertebrates; assay: Intracellular calcium assay, nonplacental pooled; type: cell-based, koala, platypus, chicken, turtle, frog, and spotted gar; details: cBRS3, tBRS3, sBRS3; inhibitor 25 μM 1 h, then GRP or NMB 10 nM; HEK293
Experimental: Intracellular calcium was measured using the non-wash calcium assay Fluo8 kit (ab112129, Abcam) according to the manufacturer’s instructions. Briefly, HEK293 cells were seeded in 24-well plates and were transfected with GRPR, NMBR, BRS3, or the empty vector plasmid pcDNA3.1-V5-His (300 ng) and incubated overnight at 37°C with 5% CO2. The next day, the cells were replated into a 96-well assay plate (black plate and clear bottom). After 12 h, growth media were aspirated, and calcium dye was added. […] The basal fluorescence intensity was recorded 15 times at 1 Hz for […]. The results were normalized to the average basal fluorescence intensity in ratio, and the peak response was used for the result calculation. Calcium fold was calculated using no stimulation data as standard value.

[10] = tested on: BRS3 receptors in nonplacental vertebrates; assay: ERK1/2 phosphorylation, nonplacental pooled; type: cell-based, koala, platypus, chicken, turtle, frog, and spotted gar; details: cBRS3, tBRS3, sBRS3; inhibitor 25 μM 1 h, then GRP or NMB 1 μM 5 min; HEK293
Experimental: For ERK1/2 phosphorylation, HEK293 cells were seeded in 24-well plates and transfected with GRPR, NMBR, BRS3, mutants of different species’ BRS3, or an empty vector plasmid, pcDNA3.1-V5-His plasmid (300 ng). […] Each sample with an equal amount of protein was mixed with 6×SDS sample buffer, boiled for 5 min, and separated on 10% SDS-polyacrylamide gel electrophoresis (PAGE) before transferring the proteins onto a PVDF membrane. The membranes were then blocked at room temperature for 1 h with 5% milk powder in Tris-buffered saline-Tween (TBST), followed by subsequent incubation at 4°C overnight in TBST containing the different primary antibodies (1:1,000 dilution). After washing three times (10 min each time) with TBST, the membranes were incubated for 1 h in TBST containing the secondary antibodies (1:2,000 dilution), followed by washing three times (10 min each time) with TBST, prior to detection by chemiluminescence.

[11] = tested on: human BRS3 (hBRS3); assay: Luciferase reporter, constitutive activity (WT, mutants, truncated; with/without inhibitor); type: cell-based; details: 25 μM inhibitor 12 h, HEK293, vs blank
Experimental: as §1

[12] = tested on: mouse BRS3 (mBRS3); assay: as above; type: cell-based; details: 25 μM inhibitor 12 h, HEK293, vs blank
Experimental: as §1

[13] = tested on: aardvark BRS3 (aBRS3); assay: as above; type: cell-based, Orycteropus afer; details: 25 μM inhibitor 12 h, HEK293, vs blank
Experimental: as §1

[14] = tested on: BRS3 of placental mammals (hBRS3, mBRS3, and aBRS3); assay: Luciferase reporter, constitutive Gq activity with inhibitor, pooled; type: cell-based, human, mouse, aardvark; details: inhibitor 25 μM, 12 h, HEK293
Experimental: as §1

[15] = tested on: GPR39; details: cited from earlier work
Description: Coevolution of GPCR–ligand pairs appears more pronounced in the polypeptide family, and there are approximately 30 orphan GPCRs from the polypeptide family, in which endogenous peptide ligands are predicted to bind to and activate these orphan GPCRs. Since GPCRs from the polypeptide family were considered to be paired with natural polypeptide ligands, many studies aim to identify endogenous peptides to deorphanize these orphan GPCRs in the polypeptide family. According to the evolution of GPCR-peptide pairs, after the 2R event during the origin of vertebrates, most orphan GP ...

- CRE luciferase fold ([1]; line 1): 1.2968 fold
- NFAT luciferase fold ([1]; line 1): 1.5912 fold
- SRF luciferase fold ([1]; line 1): 1.6244 fold
- CRE luciferase fold ([1]; line 2): 1.4057 fold
- NFAT luciferase fold ([1]; line 2): 1.6741 fold
- SRF luciferase fold ([1]; line 2): 1.7709 fold
- CRE luciferase fold ([1]; line 3): 1.3512 fold
- NFAT luciferase fold ([1]; line 3): 1.6327 fold
- SRF luciferase fold ([1]; line 3): 1.6976 fold
- CRE luciferase fold ([2]; line 1): 1.2458 fold
- NFAT luciferase fold ([2]; line 1): 2.0847 fold
- SRF luciferase fold ([2]; line 1): 1.4898 fold
- CRE luciferase fold ([2]; line 2): 1.0945 fold
- NFAT luciferase fold ([2]; line 2): 1.8235 fold
- SRF luciferase fold ([2]; line 2): 1.6079 fold
- CRE luciferase fold ([2]; line 3): 1.1702 fold
- NFAT luciferase fold ([2]; line 3): 1.9541 fold
- SRF luciferase fold ([2]; line 3): 1.5488 fold
- CRE luciferase fold ([3]; line 1): 1.4026 fold
- NFAT luciferase fold ([3]; line 1): 2.2791 fold
- SRF luciferase fold ([3]; line 1): 1.3458 fold
- CRE luciferase fold ([3]; line 2): 1.3089 fold
- NFAT luciferase fold ([3]; line 2): 1.9413 fold
- SRF luciferase fold ([3]; line 2): 1.2427 fold
- CRE luciferase fold ([3]; line 3): 1.3558 fold
- NFAT luciferase fold ([3]; line 3): 2.1102 fold
- SRF luciferase fold ([3]; line 3): 1.2942 fold
- Activation of truncated receptor (in words) [4]: cannot be stimulated
- Activation of truncated receptor (in words) [5]: cannot be stimulated
- Activation of truncated receptor (in words) [6]: cannot be stimulated
Compound: MSQRQSQSPNQTLISITNDTETSSSVVSNDTTHKGWTGDNS-NH2 [N-terminal peptide of mBRS3, synthetic N terminus peptide of mouse BRS3]
- CRE luciferase fold ([7]; line 1): 0.9705 fold
- NFAT luciferase fold ([7]; line 1): 0.9071 fold
- SRF luciferase fold ([7]; line 1): 0.9788 fold
- CRE luciferase fold ([7]; line 2): 1.0972 fold
- NFAT luciferase fold ([7]; line 2): 1.1044 fold
- SRF luciferase fold ([7]; line 2): 1.0087 fold
- CRE luciferase fold ([7]; line 3): 1.0338 fold
- NFAT luciferase fold ([7]; line 3): 1.0057 fold
- SRF luciferase fold ([7]; line 3): 0.9937 fold
- Activation of truncated receptors (in words) [8]: all CRE/NFAT-RE/SRF-RE signaling pathways could be activated

- Luciferase fold (constitutive Gq signaling) with inhibitor ([11]; line 1): 0.7675 fold
- Luciferase fold (constitutive Gq signaling) with inhibitor ([11]; line 2): 0.8993 fold
- Luciferase fold (constitutive Gq signaling) with inhibitor ([11]; line 3): 0.8334 fold
- Luciferase fold (constitutive Gq signaling) with inhibitor ([12]; line 1): 1.3903 fold
- Luciferase fold (constitutive Gq signaling) with inhibitor ([12]; line 2): 1.6189 fold
- Luciferase fold (constitutive Gq signaling) with inhibitor ([12]; line 3): 1.5046 fold
- Luciferase fold (constitutive Gq signaling) with inhibitor ([13]; line 1): 1.6524 fold
- Luciferase fold (constitutive Gq signaling) with inhibitor ([13]; line 2): 1.8796 fold
- Luciferase fold (constitutive Gq signaling) with inhibitor ([13]; line 3): 1.766 fold
Compound: C=C1C(=O)NC(C)C(=O)N(C)C(C)C(=O)NC(C(OC(=O)C(NC(C)=O)C(O)C(C)C)C(C)C)C(=O)N(C)C(C(C)OC)C(=O)OC(C)C(NC(C)=O)C(=O)OC(Cc2ccccc2)C(=O)N1C (stereo not drawn) [YM 254890] (Ac-T[PhLac][NMeDha]A[NMeA][X1][NMeT](Me); ester 1-C; configuration not given here)
- Inhibition of Ca2+ mobilization (in words) [9]: inhibits Ca^2+ ion levels; also recorded: inhibited
- Inhibition of ERK phosphorylation (in words) [10]: inhibits the phosphorylation levels of ERK; also recorded: inhibited
- Inhibition of constitutive Gq signaling (in words) [14]: inhibits the constitutively activated Gq signaling pathway

- Inhibition of Ca2+ mobilization (in words) [9]: inhibits Ca^2+ ion levels
Compound: CN1CCN(c2nc(C3=C(c4c[nH]c5ccccc45)C(=O)NC3=O)c3ccccc3n2)CC1 [Sotrastaurin]
- Inhibition of ERK phosphorylation (in words) [10]: inhibits the phosphorylation levels of ERK
- Inhibition of constitutive Gq signaling (in words) [14]: inhibits the constitutively activated Gq signaling pathway

Compound: obestatin
- Activation of GPR39 (in words) [15]: activated
- Activation of GPR39, contrary view (in words) [15]: cannot be activated

— publication PMC6422423, “Constitutively active BRS3 is a genuinely orphan GPCR in placental mammals” (PLoS Biology, 2019)
